Drawing on ChEMBL document CHEMBL3227961, “Antileukemic activity of substituted ureidothiazoles, ureidothiadiazoles, and related compounds” (J Med Chem, 1979), this text covers Activity, T/C and TGI for 27 compounds.

For data set [1], the system named is P388. The experiment in a line: Antitumor activity against mouse P388 cells allografted in BDF1 mouse assessed as survival at 100 mg/kg administered as qd for 1 to 9 days. It counts as functional, organism-based. On the set-up: dose 100 mg/kg.
Data set [2] deals with P388. Put plainly: Antitumor activity against mouse P388 cells allografted in BDF1 mouse assessed as tumor growth inhibition at 400 mg/kg administered as qd for 1 to 9 days relative to control. It counts as functional.
The test system of data set [3] is P388. The experiment in a line: Antitumor activity against mouse P388 cells allografted in BDF1 mouse assessed as tumor growth inhibition at 200 mg/kg administered as qd for 1 to 9 days relative to control. It counts as functional.
Data set [4] concerns P388. Put plainly: Antitumor activity against mouse P388 cells allografted in BDF1 mouse assessed as tumor growth inhibition at 100 mg/kg administered as qd for 1 to 9 days relative to control. The format is functional.
For data set [5], the system named is P388. Put plainly: Antitumor activity against mouse P388 cells allografted in BDF1 mouse assessed as survival at 200 mg/kg administered as qd for 1 to 9 days. The format is functional, organism-based. Details: dose 200 mg/kg.
Data set [6] has as its system P388. The experiment in a line: Antitumor activity against mouse P388 cells allografted in BDF1 mouse assessed as survival at 50 mg/kg administered as qd for 1 to 9 days. The format is functional, organism-based. On the set-up: dose 50 mg/kg.
In data set [7] the test system is P388. The experiment in a line: Antitumor activity against mouse P388 cells allografted in BDF1 mouse assessed as tumor growth inhibition at 50 mg/kg administered as qd for 1 to 9 days relative to control. It counts as functional.
In data set [8] the test system is P388. The experiment in a line: Antitumor activity against mouse P388 cells allografted in BDF1 mouse assessed as survival at 12.5 mg/kg administered as qd for 1 to 9 days. The format is functional, organism-based. On the set-up: dose 12.5 mg/kg.
Data set [9] concerns P388. The experiment in a line: Antitumor activity against mouse P388 cells allografted in BDF1 mouse assessed as tumor growth inhibition at 25 mg/kg administered as qd for 1 to 9 days relative to control. It counts as functional.
The subject of data set [10] is P388. The experiment in a line: Antitumor activity against mouse P388 cells allografted in BDF1 mouse assessed as tumor growth inhibition at 12.5 mg/kg administered as qd for 1 to 9 days relative to control. It counts as functional.
The subject of data set [11] is P388. Put plainly: Antitumor activity against mouse P388 cells allografted in BDF1 mouse assessed as survival at 25 mg/kg administered as qd for 1 to 9 days. The format is functional, organism-based. Details: dose 25 mg/kg.
Data set [12] concerns P388. The experiment in a line: Antitumor activity against mouse P388 cells allografted in BDF1 mouse assessed as survival at 400 mg/kg administered as qd for 1 to 9 days. Details: dose 400 mg/kg. It counts as functional, organism-based.
For data set [13], the system named is B16. The experiment in a line: Antitumor activity against mouse B16 cells allografted in BDF1 mouse assessed as tumor growth inhibition at 400 mg/kg administered as qd for 1 to 9 days relative to control. It counts as functional.
In data set [14] the test system is B16. The experiment in a line: Antitumor activity against mouse B16 cells allografted in BDF1 mouse assessed as tumor growth inhibition at 200 mg/kg administered as qd for 1 to 9 days relative to control. The format is functional.
The subject of data set [15] is B16. Put plainly: Antitumor activity against mouse B16 cells allografted in BDF1 mouse assessed as tumor growth inhibition at 100 mg/kg administered as qd for 1 to 9 days relative to control. The format is functional.
Data set [16] relates to B16. Put plainly: Antitumor activity against mouse B16 cells allografted in BDF1 mouse assessed as tumor growth inhibition at 50 mg/kg administered as qd for 1 to 9 days relative to control. It counts as functional.
The subject of data set [17] is B16. The experiment in a line: Antitumor activity against mouse B16 cells allografted in BDF1 mouse assessed as tumor growth inhibition at 25 mg/kg administered as qd for 1 to 9 days relative to control. The format is functional.
The next data set deals with L1210. Put plainly: Antitumor activity against mouse L1210 cells allografted in BDF1 mouse assessed as tumor growth inhibition at 200 mg/kg administered as qd for 1 to 9 days relative to control. It counts as functional.
Data set [18] has as its system Lewis lung carcinoma cell line. Put plainly: Antitumor activity against mouse LLC cells allografted in BDF1 mouse assessed as tumor growth inhibition. It counts as functional.
For data set [19], the system named is B16. The experiment in a line: Antitumor activity against mouse B16 cells allografted in BDF1 mouse assessed as tumor growth inhibition at 6.25 to 50 mg/kg administered as qd for 1 to 9 days relative to control. The format is functional, organism-based.
Another data set has as its system Mus musculus. Put plainly: Toxicity in mouse B16 cells allografted in BDF1 mouse at 6.25 to 50 mg/kg administered as qd for 1 to 9 days. The format is organism-based.

Calls of active or inactive are those of the source. The calls are words filed in the database; no cut-off is given here.

Consider `O=C(Nc1ccc([N+](=O)[O-])cc1)Nc1nncs1`, for which the result in the data set on P388 [1] was Active. Also, the figures for the T/C in the data set on P388 [2], in the data set with P388 [3] and with P388 [4] were 142%, 132% and 124%, respectively.

Turning to `CCOC(=O)c1ccc(NC(=O)Nc2nc(C)cs2)cc1`, the outcome in the data set on P388 [5], with P388 [1] and in the data set on P388 [6] was Active. For the same compound, the T/C in the data set on P388 [3] came to 138%; in the data set with P388 [4] it was 127%; in the data set on P388 [7], 109%.

On to `O=C(Nc1nncs1)C(F)(F)F`, for which the outcome in the data set on P388 [6] and in the data set on P388 [8] was Active. Besides, the T/C with P388 [7] came out at 161%; in the data set on P388 [9] it was 130%; in the data set with P388 [10], 110%.

With `O=C(Nc1ccc(C(=O)O)cc1)Nc1nccs1`, the outcome with P388 [5], in the data set with P388 [1], in the data set with P388 [6] and in the data set on P388 [11] was Active. The T/C came to 163% in the data set on P388 [3], 150% with P388 [4], 143% in the data set with P388 [7] and 125% in the data set on P388 [9].

As to `CCOC(=O)c1ccc(NC(=O)Nc2nnc(NC(=O)Nc3ccc(C(=O)OCC)cc3)[nH]2)cc1`, the outcome in the data set on P388 [1] and with P388 [6] was Active. Further, the T/C in the data set with P388 [4] worked out at 88%; with P388 [7], 89%.

Consider `O=C(Nc1ccccc1)Nc1nncs1`, for which the result in the data set with P388 [11] and in the data set on P388 [8] was Active. Also, the T/C in the data set with P388 [9] and with P388 [10] was 104% throughout.

For the compound `O=C(CCl)Nc1nncs1`, the result in the data set on P388 [5] and with P388 [1] was Active. The T/C with P388 [3] is 100%; in the data set on P388 [4], 104%.

Turning to `CNC(=O)Nc1nccs1`, the outcome in the data set with P388 [5] and with P388 [6] was Active. Further, the T/C amounted to 97% in the data set with P388 [3], 96% in the data set with P388 [4] and 105% in the data set on P388 [7].

As to `CCOC(=O)Nc1nncs1`, the outcome in the data set with P388 [5], in the data set on P388 [1], in the data set on P388 [6] and with P388 [11] was Active. The T/C in the data set on P388 [3] is given as 151%; with P388 [4], 142%; in the data set with P388 [7] it was 132%; in the data set with P388 [9] it was 108%.

On to `CCOC(=O)c1ccc(NC(=O)Nc2nc3ccc(OC)cc3s2)cc1`, for which the result in the data set with P388 [12] and with P388 [5] was Active. In addition, the T/C with P388 [2] and in the data set on P388 [3] was 89% in each case.

As to `N#Cc1ccc(NC(=O)Nc2nccs2)cc1`, the result with P388 [6] and with P388 [11] was Active. Further, the figures for the T/C in the data set on P388 [4], in the data set with P388 [7] and with P388 [9] were 160%, 132% and 124%, respectively.

With `Cc1ccc(NC(=O)Nc2nccs2)cc1`, the outcome with P388 [5] and in the data set on P388 [1] was Active. Moreover, the values for the T/C in the data set with P388 [3] and in the data set on P388 [4] were 105% and 99%, respectively.

As for `CCOC(=O)c1ccc(NC(=O)Nc2nccs2)cc1`, the outcome in the data set with P388 [1], in the data set on P388 [6] and with P388 [11] was Active. Further, the T/C in the data set on P388 [3] is 162%; in the data set on P388 [4], 143%; with P388 [7], 149%; with P388 [9], 145%; in the data set with B16 [13] it was 153%; in the data set with B16 [14], 167%. Further, the T/C came to 166% in the data set with B16 [15], 147% in the data set on B16 [16], 134% with B16 [17] and 125% with L1210. In addition, the TGI result in data set [18] is “inactive”.

On to `N#Cc1ccc(NC(=O)Nc2nncs2)cc1`, for which the result with P388 [1], in the data set with P388 [6] and with P388 [11] was Active. Also, the T/C came to 146% in the data set with P388 [3], 140% in the data set with P388 [4], 131% with P388 [7] and 122% with P388 [9].

Take `CCOC(=O)c1ccc(NC(=S)Nc2nccs2)cc1`: the outcome in the data set on P388 [1] was Active. In addition, the T/C amounted to 92% in the data set on P388 [2], 92% in the data set on P388 [3] and 95% with P388 [4].

As for `CCOC(=O)c1ccc(NC(=O)Nc2nnn[nH]2)cc1`, the outcome with P388 [12] and in the data set with P388 [5] was Active. Moreover, the T/C is listed as 108% in the data set on P388 [2] and 100% with P388 [3].

Consider `O=C(CCl)Nc1nccs1`, for which the outcome in the data set on P388 [1] and with P388 [6] was Active. Besides, the T/C was found to be 116% in the data set on P388 [4] and 103% in the data set on P388 [7].

As for `Cc1ccc(S(=O)(=O)NC(=O)Nc2nccs2)cc1`, the outcome with P388 [5] and in the data set with P388 [1] was Active. Also, the results for the T/C in the data set on P388 [3] and in the data set on P388 [4] were 99% and 106%, respectively.

For the compound `CCOC(=O)Nc1nccs1`, the result with P388 [5] and with P388 [1] was Active. For the same compound, the T/C in the data set on P388 [3] was determined as 108%; with P388 [4], 102%.

With `CCOC(=O)c1ccc(NC(=O)Nc2scc[n+]2C)cc1.COS(=O)(=O)[O-]`, the outcome with P388 [1] was Active. The T/C with P388 [3] is listed as 90%; in the data set on P388 [4], 100%.

Turning to `O=C(Nc1ccc(Cl)cc1)Nc1nccs1`, the result with P388 [1] and in the data set with P388 [6] was Active. The T/C is recorded as 118% in the data set with P388 [4] and 111% with P388 [7].

On to `CCOC(=O)c1ccc(NC(=O)Nc2nc3ccccc3s2)cc1`, for which the outcome in the data set on P388 [12] and with P388 [5] was Active. Also, the T/C with P388 [2] and with P388 [3] was 90% throughout.

As for `O=C(Nc1ccccc1)Nc1nccs1`, the result with P388 [5] and in the data set with P388 [1] was Active. Moreover, the T/C was determined as 93% in the data set on P388 [3] and 96% in the data set on P388 [4].

`CCOC(=O)c1ccc(NC(=O)NC2=NCCS2)cc1`: the outcome in the data set with P388 [12] and with P388 [5] was Active. Also, the values for the T/C with P388 [2] and in the data set with P388 [3] were 92% and 87%, respectively.

As to `O=C(Nc1ccc([N+](=O)[O-])cc1)Nc1nccs1`, the result with P388 [6], in the data set with P388 [11] and in the data set on P388 [8] was Active. Moreover, the T/C in the data set with P388 [7] is given as 142%; in the data set with P388 [9] it was 127%; with P388 [10], 112%.

As to `CCOC(=O)c1ccc(NC(=O)Nc2nncs2)cc1`, the result with P388 [1], in the data set on P388 [6], with P388 [11] and in the data set with P388 [8] was Active. Moreover, the T/C is 134% in the data set with P388 [4], 138% in the data set on P388 [7], 132% in the data set on P388 [9] and 119% with P388 [10]. The TGI entry in the data set on B16 [19] is “inactive”. Besides, the Activity result with Mus musculus is recorded as “Non-toxic”.

As for `O=C(Nc1nccs1)C(F)(F)F`, the outcome with P388 [12] and with P388 [1] was Active. In addition, the values for the T/C in the data set on P388 [2], in the data set with P388 [3] and in the data set on P388 [4] were 108%, 99% and 104%, respectively.
